“Also recorded” adds a separate entry of the source.
Test system: human monocyte-derived immature dendritic cells
Assay: Titration of phage clone binding to human dendritic cells
Conditions: 2×10^11 phage on 5×10^4 cells, 1 hour on ice; donor S
Method: Phage were recovered and titred from each round of selection as follows. 2×10^11 Blocked phage were added to 5×10^4 blocked monocyte-derived immature dendritic cells for 1 hour on ice before washing cells three times with 0.05% Tween20-PBS, eluting phage with TBS pH5.5, and lysing cells to harvest the phage remaining bound. The numbers of phage harvested by cell lysis were calculated as plaque forming units (pfu). […] Sequencing of the bound phage shown in FIG. 1 identified the peptides as APSNSTA [SEQ. ID. NO.:15], QLLTGAS [SEQ. ID. NO.:30], TARDYRL [SEQ. ID. NO.:31], FQSQYQK [SEQ. ID. NO.:26], PLMPSLS [SEQ. ID. NO.:24], FPRAPHH [SEQ. ID. NO.:32], MASISMK [SEQ. ID. NO.:27], DWWHTSA [SEQ. ID. NO.:28], SHVKLNS [SEQ. ID. NO.:29], and SPALKTV [SEQ. ID. NO.:16].
(§1) The dendritic cells were spun down at 2000 rpm, for 5 min at 4° C., and resuspended in the phage solution, allowing the phage to bind for 1 hour on ice with occasional mixing. The cells were then washed in PBS-Tween 20 (0.05%) three times before eluting phage with 166 μl TBS pH5.5. for 10 min on ice. The eluate was neutralised with […] Tris-HCl pH 8, the cells were spun down, and the supernatant removed to be stored as eluate. The cell pellet was resuspended in 200 μl of cell lysis buffer (30 mM Tris-HCl, 1 mM EDTA pH 8.0) for 1 hour on ice, with shaking. The cell debris was removed by spinning at 5000 rpm for 5 min and the supernatant recovered. The phage in the eluate and the cell lysate were titred by measuring plaque forming units (pfu) in E. coli ER2738 as described in the NEB C7C technical bulletin.
(§2) The titration of phage clone binding was carried out using human and mouse dendritic cells, with binding to plastic as a control. The human cells were obtained from donors as stated below.

Substance | Phage harvested by cell lysis (pfu), human donor S [pfu ×10^3]
DWWHTSA (Synthetic peptide binding to dendritic cells) | 8020
FPRAPHH (Synthetic peptide binding to dendritic cells) | 19400
FQSQYQK (Synthetic peptide binding to dendritic cells) | 3060
MASISMK (Synthetic peptide binding to dendritic cells) | 9440
PMLPSLS (Synthetic peptide binding to dendritic cells) | 560
QLLTGAS (Synthetic peptide binding to dendritic cells) | 220
SPALKTV (Synthetic peptide binding to dendritic cells) | 6960
TARDYRL (Synthetic peptide binding to dendritic cells) | 940

Same assay, conditions: 2×10^11 phage on 5×10^4 cells, 1 hour on ice; donor one

Substance | Phage harvested by cell lysis (pfu), human donor one [pfu ×10^3]
DWWHTSA (Synthetic peptide binding to dendritic cells) | 2980
FPRAPHH (Synthetic peptide binding to dendritic cells) | 15920
FQSQYQK (Synthetic peptide binding to dendritic cells) | 1000
MASISMK (Synthetic peptide binding to dendritic cells) | 15220
PMLPSLS (Synthetic peptide binding to dendritic cells) | 40
QLLTGAS (Synthetic peptide binding to dendritic cells) | 380
SPALKTV (Synthetic peptide binding to dendritic cells) | 120

Same assay, conditions: 2×10^11 phage on 5×10^4 cells, 1 hour on ice; donor two

Substance | Phage harvested by cell lysis (pfu), human donor two [pfu ×10^3]
DWWHTSA (Synthetic peptide binding to dendritic cells) | 1380
FPRAPHH (Synthetic peptide binding to dendritic cells) | 3200
FQSQYQK (Synthetic peptide binding to dendritic cells) | 360
MASISMK (Synthetic peptide binding to dendritic cells) | 7780
PMLPSLS (Synthetic peptide binding to dendritic cells) | 40
QLLTGAS (Synthetic peptide binding to dendritic cells) | 960
TARDYRL (Synthetic peptide binding to dendritic cells) | 180

Same assay, conditions: all titrations, including mouse dendritic cells; versus phage with no insert

Substance | Extent of phage clone binding in titrations
FPRAPHH (Synthetic peptide binding to dendritic cells) | bound in highest numbers in all titrations
MASISMK (Synthetic peptide binding to dendritic cells) | bound in highest numbers in all titrations

Test system: mouse dendritic cells
Assay: Titration of phage clone binding to mouse dendritic cells
Conditions: 2×10^11 phage
Method: as §1, §2

Substance | Phage titre (pfu), mouse DCs [pfu ×10^3]
DWWHTSA (Synthetic peptide binding to dendritic cells) | 3240
FPRAPHH (Synthetic peptide binding to dendritic cells) | 13980
FQSQYQK (Synthetic peptide binding to dendritic cells) | 3260
MASISMK (Synthetic peptide binding to dendritic cells) | 6380
PMLPSLS (Synthetic peptide binding to dendritic cells) | 1520
QLLTGAS (Synthetic peptide binding to dendritic cells) | 20
SPALKTV (Synthetic peptide binding to dendritic cells) | 600

Test system: not listed separately
Assay: Titration of phage clone binding to blocked plastic (control)
Conditions: not given
Method: as §1, §2

Substance | Phage titre (pfu), plastic [pfu ×10^3]
DWWHTSA (Synthetic peptide binding to dendritic cells) | 1180
FPRAPHH (Synthetic peptide binding to dendritic cells) | 1860
FQSQYQK (Synthetic peptide binding to dendritic cells) | 1680
MASISMK (Synthetic peptide binding to dendritic cells) | 2380
PMLPSLS (Synthetic peptide binding to dendritic cells) | 80
QLLTGAS (Synthetic peptide binding to dendritic cells) | 220
SPALKTV (Synthetic peptide binding to dendritic cells) | 220

Test system: human monocyte-derived immature dendritic cells
Assay: Whole cell flow cytometry (FACS) of phage clone binding
Conditions: day 4 cells, several donors; versus phage clone with no insert
Method: 5×10^4 Dendritic cells and 2×10^11 of an individual purified phage clone were each blocked at 4° C. for 30 mins in 1 ml MBSA (2% Marvel, 5% BSA in PBS), with mixing on a turntable. The dendritic cells were spun down at 2000 rpm, a gentle centrifugation to pellet cells without lysing them, for 5 min at 4° C., and the pellet resuspended in the blocked phage solution. The mixture was held on ice for 30 min to allow the phage to bind, before spinning down the cells, removing the supernatant and washing the cells with 1 ml 1% BSA, 0.05% Tween20-PBS. The cells were spun again, the supernatant removed, and the cells fixed in 1 ml 1% paraformaldehyde for 30 min on ice. […] The cells were incubated with the antibody on ice for 30 min before spinning down, washing twice in 0.05% Tween20, 1% BSA PBS, resuspending in […] and measuring the percentage cells positive for FITC by FACS analysis.
Alternatively, 5×10^4 dendritic cells were mixed with 2×10^11 of individual phage clones as described for panning of the phage library. The mixture of phage and DC suspensions was kept on ice for 30 min before cells were centrifuged to remove the supernatant and washed with 1 ml 1% BSA, 0.05% Tween 20-PBS. The cells were again pelleted by centrifugation, then fixed for flow cytometry analysis by resuspending in 1 ml of 1% paraformaldehyde for 30 min on ice. […] The cells were incubated with the antibody on ice for 30 min then pelleted by centrifugation, washed twice in 0.05% Tween 20, 1% BSA PBS and resuspended in 200 μl PBS. The percentage of FITC-positive cells was determined by flow cytometry using a Epics XL flow cytometer (Beckman Coulter, High Wycombe, UK.).

Substance | Percentage of cells positive for bound phage (FITC) by FACS
DWWHTSA (Synthetic peptide binding to dendritic cells) | binding to a higher percentage of cells than a phage clone bearing no insert; also recorded: bind to dendritic cells in highest amounts; also recorded: binding to dendritic cells in highest amounts
FPRAPHH (Synthetic peptide binding to dendritic cells) | a higher percentage of cells positive for bound phage than the controls with no insert
FQSQYQK (Synthetic peptide binding to dendritic cells) | binding to a higher percentage of cells than a phage clone bearing no insert
MASISMK (Synthetic peptide binding to dendritic cells) | a higher percentage of cells positive for bound phage than the controls with no insert
PMLPSLS (Synthetic peptide binding to dendritic cells) | a higher percentage of cells positive for bound phage than the controls with no insert
QLLTGAS (Synthetic peptide binding to dendritic cells) | a higher percentage of cells positive for bound phage than the controls with no insert; also recorded: binds to marginally more cells than the others
SPALKTV (Synthetic peptide binding to dendritic cells) | all clones except for one
SQKNPQM (Synthetic peptide binding to dendritic cells) | binding to a higher percentage of cells than a phage clone bearing no insert
STPPNTT (Synthetic peptide binding to dendritic cells) | a higher percentage of cells positive for bound phage than the controls with no insert
TARDYRL (Synthetic peptide binding to dendritic cells) | a higher percentage of cells positive for bound phage than the controls with no insert

Test system: human monocyte-derived immature dendritic cells
Assay: LID (lipid-peptide-DNA) transfection of immature dendritic cells, EGFP by FACS and 7AAD cell death
Assay type: cell-based
Design: Transfection efficiency, % EGFP positive cells: concentration or dose not given beside the values
Conditions: day 3 dendritic cells (FIG. 6a)
Method: (§3) Lipopolyplex (LID) transfection complexes comprising lipid (L), peptide (in the form of a peptide derivative as described above) (I) and DNA (D) were prepared. The lipid component was Lipofectin or Lipofectamine 2000 (Invitrogen Ltd, Paisley, UK), the peptide component was a synthesized peptide A to F, 6 or 6J derivative, as described in Table 7 above, and the DNA was the plasmid pEGFP-N1 (Clontech, BD Biosciences, Palo Alto, Calif.)
In the transfection complex, peptide component to DNA charge ratios (+/−) were used at 1.5:1, 3:1 and 7:1. The lipid
(§4) component (Lipofectin or Lipofectamine 2000) was maintained at a constant proportion, by weight, relative to DNA of 0.75:1. Prior to making transfection complexes, in method A the lipid component was diluted to a concentration of 15 μg per ml, the peptide was prepared at 0.1 mg/ml and the DNA (plasmid pEGFP-N1, BD Biosciences, Cowley, UK, prepared using EndoFree plasmid kit, Qiagen Ltd, Crawley, UK) was at 10 μg per ml. All dilutions were performed with OptiMEM reduced serum tissue culture medium (Life Technologies Ltd, Paisley, UK). In method B prior to making transfection complexes the lipid component was diluted to a concentration of 30 μg per ml, the peptide was prepared at 0.1 mg/ml and the DNA (plasmid pEGFP-N1, BD Biosciences, Cowley, UK, prepared using EndoFree plasmid kit, Qiagen Ltd, Crawley, UK) was at […]. All dilutions were performed in serum-free RPMI.
(§5) Transfection complexes were made by mixing the components in the order 1) lipid (50 μl) then 2) peptide (70 μl) and finally 3) DNA (50 μl), then diluting with OptiMEM or serum free RPMI, as appropriate, to a concentration relative to the DNA component of 2 μg DNA per […] (OptiMEM) or 500 μl (RPMI).
Immature day 6 dendritic cells, obtained as described in Example 1(v) above, were plated into a 48 well plate at 5×10^4 cells per well in complete media and allowed to settle for 3 hours at 37° C. 300 μl or 500 μl (as appropriate) of the transfection complex obtained as described above was added to each well. The transfection complex was applied to cells within 5 minutes of preparation. Transfection incubations were performed at 37° C. for 4 hours, after which the medium was replaced with complete medium with cytokines for 24 hours. Cells were harvested by scraping, spun down and resuspended in 300 μl PBS for FACS analysis to determine the percentage of cells positive for the reporter gene EGFP (Enhanced Green Fluorescent Protein). Each transfection was performed in triplicate wells.
(§6) For transfection of monocytes, peripheral blood monocytes were prepared using Lymphoprep centrifugation and CD14 bead selection as described in the method for preparation of monocyte derived dendritic cells in Example 1(v) above. These cells were then transfected as described as described for dendritic cells except that transfection of the monocytes (and also of day 3 or day 4 immature dendritic cells) was carried out in solution.

Substance | Transfection efficiency, % EGFP positive cells [%]
RRETAWA [peptide 6, reference compound] | 14

Same assay, conditions: day 4 cells, LID with lipofectin (FIG. 4b)

Substance | Percentage of dendritic cells transfected
DWWHTSA (Synthetic peptide binding to dendritic cells) | less than 1%
MASISMK (Synthetic peptide binding to dendritic cells) | approximately half that value

Same assay, conditions: day 4 cells, Lipofectamine 2000

Substance | Transfection efficiency, % positive cells [%]
RRETAWA [peptide 6, reference compound] | 3

Same assay, conditions: day 4 cells, lipofectin, lipid:DNA 0.75:1, peptide:DNA 7:1 (FIG. 5a)

Substance | Transfection efficiency, % positive cells
FPRAPHH (Synthetic peptide binding to dendritic cells) | 11%
MASISMK (Synthetic peptide binding to dendritic cells) | about 7%
RRETAWA [peptide 6, reference compound] | 2%

Test system: human peripheral blood monocytes
Assay: LID transfection of monocytes, EGFP by FACS and cell death
Assay type: cell-based
Conditions: FIG. 7a
Method: as §3, §4, §5, §6

Substance | Percentages of cells transfected (ranking)
FPRAPHH (Synthetic peptide binding to dendritic cells) | highest percentages of cells transfected

Same assay, conditions: FIG. 7b; peptide F value with Lipofectin

Substance | Cell death [%]
DWWHTSA (Synthetic peptide binding to dendritic cells) | 25

— US7820624B2, “Peptide ligands” (ICH Productions Limited, priority 2003, dated 2010)
